pIC50: −log10 of the molar value. Read-outs that look alike come from different tables or passages of the source.

Among the data in US9212182B2, “Bicyclic sulfonamide compounds as sodium channel inhibitors” (AMGEN INC., priority 2013, dated 2015) are IC50 values, retold here.

The assay concerns the target Nav 1.7 (Homo sapiens (Human), UniProt Q15858). Briefly: in-vitro Nav 1.7 PX (IC50). The format is cell-based.
[1] abbreviates: in-vitro Nav 1.7 PX data (PatchXpress).

Chain of Nav 1.7 (Q15858 whole entry): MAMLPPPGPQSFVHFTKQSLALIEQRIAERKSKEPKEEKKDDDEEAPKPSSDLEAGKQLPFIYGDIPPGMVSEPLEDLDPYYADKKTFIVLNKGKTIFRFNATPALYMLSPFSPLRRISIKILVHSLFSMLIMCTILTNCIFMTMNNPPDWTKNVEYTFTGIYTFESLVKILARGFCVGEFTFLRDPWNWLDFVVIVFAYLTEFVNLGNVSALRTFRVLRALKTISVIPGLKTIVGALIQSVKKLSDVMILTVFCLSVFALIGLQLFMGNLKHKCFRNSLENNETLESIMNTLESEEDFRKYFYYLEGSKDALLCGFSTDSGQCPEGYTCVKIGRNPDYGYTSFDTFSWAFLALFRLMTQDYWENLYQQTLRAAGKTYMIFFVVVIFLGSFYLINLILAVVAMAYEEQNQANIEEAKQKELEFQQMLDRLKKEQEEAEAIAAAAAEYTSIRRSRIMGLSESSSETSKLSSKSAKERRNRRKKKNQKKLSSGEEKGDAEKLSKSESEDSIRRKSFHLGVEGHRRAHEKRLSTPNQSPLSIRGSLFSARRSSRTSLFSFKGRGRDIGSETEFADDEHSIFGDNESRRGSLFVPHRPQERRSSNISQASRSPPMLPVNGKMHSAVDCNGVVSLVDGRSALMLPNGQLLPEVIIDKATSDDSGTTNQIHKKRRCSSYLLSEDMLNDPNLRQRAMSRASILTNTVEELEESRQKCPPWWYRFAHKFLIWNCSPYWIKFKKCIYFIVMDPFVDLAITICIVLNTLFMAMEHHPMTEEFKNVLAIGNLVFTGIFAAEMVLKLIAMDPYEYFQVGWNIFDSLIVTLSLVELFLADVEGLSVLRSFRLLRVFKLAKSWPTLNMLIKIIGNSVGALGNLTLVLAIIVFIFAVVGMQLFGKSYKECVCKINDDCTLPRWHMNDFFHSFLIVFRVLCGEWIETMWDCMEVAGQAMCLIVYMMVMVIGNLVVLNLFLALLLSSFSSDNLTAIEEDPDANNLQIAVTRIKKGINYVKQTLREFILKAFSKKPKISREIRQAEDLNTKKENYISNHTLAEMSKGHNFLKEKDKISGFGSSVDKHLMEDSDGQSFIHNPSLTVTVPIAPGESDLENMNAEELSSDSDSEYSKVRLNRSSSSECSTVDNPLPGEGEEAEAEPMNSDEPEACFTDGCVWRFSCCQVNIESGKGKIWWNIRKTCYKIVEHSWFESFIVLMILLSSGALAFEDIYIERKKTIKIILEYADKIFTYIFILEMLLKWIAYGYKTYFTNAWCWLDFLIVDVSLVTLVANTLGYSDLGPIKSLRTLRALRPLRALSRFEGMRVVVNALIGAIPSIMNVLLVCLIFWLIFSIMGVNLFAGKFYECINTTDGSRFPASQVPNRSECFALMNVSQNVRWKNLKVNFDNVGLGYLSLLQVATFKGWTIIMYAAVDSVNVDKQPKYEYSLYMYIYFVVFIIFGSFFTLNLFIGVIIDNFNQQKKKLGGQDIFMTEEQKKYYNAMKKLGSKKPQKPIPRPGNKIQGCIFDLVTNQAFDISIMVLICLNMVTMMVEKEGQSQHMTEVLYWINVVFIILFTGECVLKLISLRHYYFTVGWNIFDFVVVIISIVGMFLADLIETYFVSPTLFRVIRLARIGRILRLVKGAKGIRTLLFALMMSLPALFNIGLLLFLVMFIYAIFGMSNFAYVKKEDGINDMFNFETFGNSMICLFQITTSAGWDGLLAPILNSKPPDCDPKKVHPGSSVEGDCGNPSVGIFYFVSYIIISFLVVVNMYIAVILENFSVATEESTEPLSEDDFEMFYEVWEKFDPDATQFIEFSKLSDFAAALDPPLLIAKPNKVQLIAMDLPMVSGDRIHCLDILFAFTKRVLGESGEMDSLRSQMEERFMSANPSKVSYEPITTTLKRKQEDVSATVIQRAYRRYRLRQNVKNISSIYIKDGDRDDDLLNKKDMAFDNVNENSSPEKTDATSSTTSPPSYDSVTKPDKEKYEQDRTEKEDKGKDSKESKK

Molecule `COc1nc(-c2cc(F)cc(F)c2)c(Cl)cc1-n1c(=O)ccc2cc(S(=O)(=O)Nc3ccon3)ccc21` [Example 447, 1-(5-chloro-6-(3,5-difluorophenyl)-2-methoxypyridin-3-yl)-N-(isoxazol-3-yl)-2-oxo-1,2-dihydroquinoline-6-sulfonamide] showed a pIC50 (in-vitro PatchXpress (PX)) of 7.23.

`COc1cc(C[C@@H]2CCOC2)c(F)cc1-n1c(=O)ccc2cc(S(=O)(=O)Nc3ccon3)ccc21` (atropisomer, axis not shown; (P)) [Example 1235, (P)-1-(5-fluoro-2-methoxy-4-((3R)-tetrahydro-3-furanylmethyl)phenyl)-N-3-isoxazolyl-2-oxo-1,2-dihydro-6-quinolinesulfonamide] showed a pIC50 of 5.67.

In the case of `COc1cc(Br)c(F)cc1-n1c(=O)ccc2cc(S(=O)(=O)Nc3cc(OCC(C)C)ncn3)ccc21` (atropisomer, axis not shown; (P)) [Example 1187, (P)-1-(4-bromo-5-fluoro-2-methoxyphenyl)-N-(6-(2-methylpropoxy)-4-pyrimidinyl)-2-oxo-1,2-dihydro-6-quinolinesulfonamide], the pIC50 was 5.78.

Molecule `COc1ccc(-c2ccc(F)c(C#N)c2)cc1-n1c(=O)ccc2cc(S(=O)(=O)Nc3ccon3)ccc21` [Example 834, 1-(3′-cyano-4′-fluoro-4-methoxy-3-biphenylyl)-N-3-isoxazolyl-2-oxo-1,2-dihydro-6-quinolinesulfonamide] showed a pIC50 (in-vitro Nav 1.7 PX data) of 6.53.

As for `COc1ccc(-c2cc(F)cc(Cl)c2)cc1-n1c(=O)ccc2cc(S(=O)(=O)Nc3ccncn3)ccc21` (atropisomer, axis not shown; (P)) [Example 611, (P)-1-(3′-chloro-5′-fluoro-4-methoxy-3-biphenylyl)-2-oxo-N-4-pyrimidinyl-1,2-dihydro-6-quinolinesulfonamide], where the note is “in-vitro Nav 1.7 PX data”, the pIC50 is 7.54. This pIC50 lies 1.01 log units higher than the previous one.

Take `COc1cc(-c2ccc(Cl)c(C)c2)ccc1-n1c(=O)ccc2cc(S(=O)(=O)Nc3ncc(F)cn3)ccc21` (atropisomer, axis not shown; (P)) [Example 690, (P)-1-(4′-chloro-3-methoxy-3′-methyl-4-biphenylyl)-N-(5-fluoro-2-pyrimidinyl)-2-oxo-1,2-dihydro-6-quinolinesulfonamide]: the pIC50 (in-vitro Nav 1.7 PX data) was 7.31.

`COc1nc(OCC(F)(F)C(F)(F)F)c(Cl)cc1-n1c(=O)ccc2cc(S(=O)(=O)Nc3ccon3)ccc21` [Example 832, 1-(5-chloro-2-methoxy-6-(2,2,3,3,3-pentafluoropropoxy)-3-pyridinyl)-N-3-isoxazolyl-2-oxo-1,2-dihydro-6-quinolinesulfonamide] gave a pIC50 (in-vitro Nav 1.7 PX data) of 6.79.

`COc1ccc(-c2cncc(C(F)(F)F)c2)cc1-n1c(=O)ccc2cc(S(=O)(=O)Nc3ccon3)ccc21` [Example 492, N-3-isoxazolyl-1-(2-methoxy-5-(5-(trifluoromethyl)-3-pyridinyl)phenyl)-2-oxo-1,2-dihydro-6-quinolinesulfonamide] showed a pIC50 of 6.53.

Consider `COc1nc(-c2cc(F)cc(F)c2)c(Cl)cc1-n1c(=O)ccc2cc(S(=O)(=O)Nc3ccon3)ccc21` (atropisomer, axis not shown; (P)) [Example 665, (P)-1-(5-chloro-6-(3,5-difluorophenyl)-2-methoxy-3-pyridinyl)-N-3-isoxazolyl-2-oxo-1,2-dihydro-6-quinolinesulfonamide], for which the negative-log IC50 (pIC50) (in-vitro Nav 1.7 PX data) was 7.82.

Molecule “1-(2′-chloro-5-methoxy-2,3′-dimethyl-4-biphenylyl)-2-oxo-N-2-pyrimidinyl-1,2-dihydro-6-quinolinesulfonamide [Example 961]” gave a pIC50 of 7.25.

The molecule `COc1cc(-c2ccc(Cl)c(F)c2)ccc1-n1c(=O)ccc2cc(S(=O)(=O)Nc3ccon3)ccc21` (atropisomer, axis not shown; (P)) [Example 580, (P)-1-(4′-chloro-3′-fluoro-3-methoxy-4-biphenylyl)-N-3-isoxazolyl-2-oxo-1,2-dihydro-6-quinolinesulfonamide] had a pIC50 of 7.96. Compared with the last molecule, the pIC50 is 0.71 log units higher.

In the case of `COc1ccc(-c2ccc(-n3c(=O)ccc4cc(S(=O)(=O)Nc5ccon5)ccc43)c(OC)c2)c(Cl)c1` [Example 1061, 1-(2′-chloro-3,4′-dimethoxy-4-biphenylyl)-N-3-isoxazolyl-2-oxo-1,2-dihydro-6-quinolinesulfonamide], the pIC50 under setting [1] is 7.21.

With `COc1cc(C#CC2CC2)c(F)cc1-n1c(=O)ccc2cc(S(=O)(=O)Nc3ccon3)ccc21` [Example 1130, 1-(4-(cyclopropylethynyl)-5-fluoro-2-methoxyphenyl)-N-3-isoxazolyl-2-oxo-1,2-dihydro-6-quinolinesulfonamide], where the note is “in-vitro Nav 1.7 PX data”, the pIC50 was 6.68.

In turn, `COc1cc(-c2cc(C)cc(Cl)c2)c(F)cc1-n1c(=O)ccc2cc(S(=O)(=O)Nc3ccon3)ccc21` (atropisomer, axis not shown; (M)) [Example 507, (M)-1-(3′-chloro-2-fluoro-5-methoxy-5′-methyl-4-biphenylyl)-N-3-isoxazolyl-2-oxo-1,2-dihydro-6-quinolinesulfonamide] had a pIC50 (in-vitro PatchXpress (PX)) of 6.00.

Regarding `COc1ccc(-c2ccc(OC)c(-n3c(=O)ccc4cc(S(=O)(=O)Nc5ccon5)ccc43)c2)cc1Cl` [Example 884, 1-(3′-chloro-4,4′-dimethoxy-3-biphenylyl)-N-3-isoxazolyl-2-oxo-1,2-dihydro-6-quinolinesulfonamide], the pIC50 (in-vitro Nav 1.7 PX data) is 7.46.

Take `COc1cc(-c2cc(F)cc(Cl)c2)ccc1-n1c(=O)ccc2cc(S(=O)(=O)Nc3cccnn3)ccc21` (atropisomer, axis not shown; (P)) [Example 480, (P)-1-(3′-chloro-5′-fluoro-3-methoxy-4-biphenylyl)-2-oxo-N-3-pyridazinyl-1,2-dihydro-6-quinolinesulfonamide]: under “in-vitro PatchXpress (PX)”, the pIC50 is 8.10.

Consider `COc1ccc(-c2cc(OC)c(-n3c(=O)ccc4cc(S(=O)(=O)Nc5ccon5)ccc43)cc2F)c(Cl)c1` [Example 699, 1-(2′-chloro-2-fluoro-4′,5-dimethoxy-4-biphenylyl)-N-3-isoxazolyl-2-oxo-1,2-dihydro-6-quinolinesulfonamide], for which the pIC50 (in-vitro Nav 1.7 PX data) was 7.43.

As to `COc1cc(-c2ccc(Cl)c(C#N)c2)c(F)cc1-n1c(=O)ccc2cc(S(=O)(=O)Nc3ncco3)ccc21` [Example 890, 1-(4′-chloro-3′-cyano-2-fluoro-5-methoxy-4-biphenylyl)-N-1,3-oxazol-2-yl-2-oxo-1,2-dihydro-6-quinolinesulfonamide], the pIC50 (in-vitro Nav 1.7 PX data) was 7.08.

On to `CC(C#N)Oc1cc(Br)c(F)cc1-n1c(=O)ccc2cc(S(=O)(=O)Nc3ccon3)ccc21` (stereo not drawn) [Example 680, 1-(4-bromo-2-(1-cyanoethoxy)-5-fluorophenyl)-N-(isoxazol-3-yl)-2-oxo-1,2-dihydroquinoline-6-sulfonamide], for which the pIC50 under setting [1] is 4.59.

The molecule `COc1cccc(-c2cc(OC)c(-n3c(=O)ccc4cc(S(=O)(=O)Nc5ccon5)ccc43)cc2F)n1` [Example 805, 1-(5-fluoro-2-methoxy-4-(6-methoxy-2-pyridinyl)phenyl)-N-3-isoxazolyl-2-oxo-1,2-dihydro-6-quinolinesulfonamide] showed a pIC50 (in-vitro Nav 1.7 PX data) of 7.15.

For the molecule `COc1cc(-c2cnc(F)c(C)c2)c(F)cc1-n1c(=O)ccc2cc(S(=O)(=O)Nc3ccon3)ccc21` [Example 722, 1-(5-fluoro-4-(6-fluoro-5-methyl-3-pyridinyl)-2-methoxyphenyl)-N-3-isoxazolyl-2-oxo-1,2-dihydro-6-quinolinesulfonamide], under “in-vitro Nav 1.7 PX data”, the pIC50 is 6.75.

In general, pIC50 refers to the IC50 on a negative log10 scale, so that one unit is a factor of ten. Lower therefore signals a high IC50.
